Test results as given in patent US20140182011A1, “Methods Using Acyl-Coenzyme A-Binding Proteins to Enchance Drought Tolerance in Genetically Modified Plants” (The University of Hong Kong, priority 2011, published 2014).

How the values were obtained:
ACBP2 = experiment: qRT-PCR of ACBP2 expression after ABA treatment; type: in vivo, Arabidopsis; conditions: 12-day-old seedlings, ABA (100 µM), continuous white light
Procedure: TRIzol® reagent was also used for RNA extraction of 12-day-old Arabidopsis seedlings subject to treatment by 100 μM ABA or drought for the various times (0, 1, 3, 6 and 24 h) under continuous white light. First-strand was synthesized using the Superscript First-Strand Synthesis System (Invitrogen). QRT-PCR was performed using StepOne Plus (Applied Biosystems) and FastStart Universal SYBR Green Master (Roche). Transcript changes were analyzed according to Schmittgen and Livak (Nat. Protoc. 3:1101-1108 (2008) from three independent experiments.
To determine the effect of ABA treatment on ACBP2 expression, the expression of ACBP2 was examined by Real-time quantitative PCR (qRT-PCR) using primers ML1122 and ML1123 (SEQ ID NOs: 1 and 2) in 12-day-old seedlings before and after ABA treatment under continuous white light. qRT-PCR was performed using StepOne Plus (Applied Biosystems) and FastStart Universal SYBR Green Master (Roche). Transcript changes were analyzed according to Schmittgen and Livak (Nat. Protoc. 3: 1101-1108 (2008) from three independent experiments.

ACBP2pro:GUS = experiment: Histochemical GUS assay during germination; type: in vivo, Arabidopsis; conditions: ABA treatment
Procedure: Histochemical GUS assays were carried out using 5 bromo-4-chloro-3-indolyl-b-D-glucuronide (X-Glue) according to Liu et al., Plant Cell, 16: 5-20 (2004). Plant samples were immersed and vacuum filtrated in the GUS staining solution for 30 min (100 mM sodium phosphate buffer, pH 7.0, 0.1% Triton X-100, 2 mM potassium ferricyanide, 2 mM potassium ferrocyanide, 1 mg/mL 5 bromo-4-chloro-3-indolyl-β-D-glucuronide), incubated and observed over a period ranging from 3 to 16 h at 37° C. Subsequently, samples were cleared in 70% ethanol and photographed.

Arabidopsis seeds = experiment: Seed germination with ABA treatment; type: in vivo
Procedure: To test ABA sensitivity at germination, over 200 seeds per experiment were sown on MS medium in the presence or absence of […] (Sigma-Aldrich, St Louis, Mo., USA). After 2 d at 4° C., seeds were germinated and grown under 16-hour-light (23° C.)/8-hour-dark (21° C.) cycles. Germination was examined daily with a microscope (Leica MZ6; Leica, Solms, Germany), and seedlings were photographed after 7 d. For post-germination growth assays, seeds were germinated on MS medium for 4 d, followed by transfer to MS medium or MS medium supplemented with […] for 7 d before photography and root measurements.

For `CC1=CC(=O)CC(C)(C)[C@@]1(O)/C=C/C(C)=C\C(=O)O` [ABA, Abscisic acid], the “ACBP2 expression (qRT-PCR)” value (ACBP2) was “significant induction”, the “GUS expression as germination progressed” value (ACBP2pro:GUS) was “retained GUS expression” and the seed germination (Arabidopsis seeds) was “suppressed germination”.
